{"source": "PubChem BioAssay (NCI)", "assay_in_all_cases": "NCI tumour cell line growth inhibition, 48 h", "key": {"[1]": {"tested_on": "HOP-92 NSCLC"}, "[2]": {"tested_on": "OVCAR-4 ovarian"}, "[3]": {"tested_on": "OVCAR-5 ovarian"}, "[4]": {"tested_on": "KM12 colon"}, "[5]": {"tested_on": "SR leukemia"}, "[6]": {"tested_on": "SF-268 CNS"}, "[7]": {"tested_on": "CAKI-1 renal"}, "[8]": {"tested_on": "SK-MEL-2 melanoma"}, "[9]": {"tested_on": "OVCAR-3 ovarian"}, "[10]": {"tested_on": "SW-620 colon"}, "[11]": {"tested_on": "SF-295 CNS"}, "[12]": {"tested_on": "SNB-19 CNS"}, "[13]": {"tested_on": "HCC-2998 colon"}, "[14]": {"tested_on": "OVCAR-8 ovarian"}, "[15]": {"tested_on": "SF-539 CNS"}, "[16]": {"tested_on": "NCI/ADR-RES ovarian"}, "[17]": {"tested_on": "BT-549 breast"}, "[18]": {"tested_on": "NCI-H226 lung"}, "[19]": {"tested_on": "COLO 205 colon"}, "[20]": {"tested_on": "HT29 colon"}, "[21]": {"tested_on": "A498 renal"}, "[22]": {"tested_on": "DU-145 prostate"}, "[23]": {"tested_on": "786-0 renal"}, "[24]": {"tested_on": "PC-3 prostate"}, "[25]": {"tested_on": "NCI-H460 lung"}, "[26]": {"tested_on": "MCF7 breast"}, "[27]": {"tested_on": "RXF 393 renal"}, "[28]": {"tested_on": "SK-MEL-5 melanoma"}, "[29]": {"tested_on": "MDA-MB-231 breast"}, "[30]": {"tested_on": "NCI-H23 lung"}, "[31]": {"tested_on": "UACC-257 melanoma"}, "[32]": {"tested_on": "HCT-15 colon"}, "[33]": {"tested_on": "HOP-62 NSCLC"}, "[34]": {"tested_on": "EKVX NSCLC"}, "[35]": {"tested_on": "LOX IMVI melanoma"}, "[36]": {"tested_on": "CCRF-CEM leukemia"}, "[37]": {"tested_on": "A549 NSCLC"}, "[38]": {"tested_on": "SNB-75 CNS"}, "[39]": {"tested_on": "HCT-116 colon"}, "[40]": {"tested_on": "UO-31 renal"}, "[41]": {"tested_on": "RPMI-8226 leukemia"}, "[42]": {"tested_on": "NCI-H522 lung"}, "[43]": {"tested_on": "SK-MEL-28 melanoma"}, "[44]": {"tested_on": "HS 578T breast"}, "[45]": {"tested_on": "UACC-62 melanoma"}, "[46]": {"tested_on": "MDA-MB-435"}, "[47]": {"tested_on": "TK-10 renal"}, "[48]": {"tested_on": "U251 CNS"}, "[49]": {"tested_on": "SN12C renal"}, "[50]": {"tested_on": "SK-OV-3 ovarian"}, "[51]": {"tested_on": "IGROV1 ovarian"}, "[52]": {"tested_on": "ACHN renal"}, "[53]": {"tested_on": "MALME-3M melanoma"}}, "note": "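Test compounds were applied to cells in 96-well plates for 48 hours at 5 doses. At the GI50, growth is halved. The concentration for full growth arrest is given as TGI.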"}
{"smiles": "NC(=O)c1cc([N+](=O)[O-])c(Cl)c([N+](=O)[O-])c1Cl", "values": [{"measurement": "GI50", "setting": "[1]", "value": 1.84, "unit": "µM"}, {"measurement": "TGI", "setting": "[1]", "value": 3.45, "unit": "µM"}, {"measurement": "GI50", "setting": "[2]", "value": 1.77, "unit": "µM"}, {"measurement": "TGI", "setting": "[2]", "value": 3.19, "unit": "µM"}, {"measurement": "GI50", "setting": "[3]", "value": 2.3, "unit": "µM"}, {"measurement": "TGI", "setting": "[3]", "value": 4.59, "unit": "µM"}, {"measurement": "GI50", "setting": "[4]", "value": 1.61, "unit": "µM"}, {"measurement": "TGI", "setting": "[4]", "value": 3.02, "unit": "µM"}, {"measurement": "GI50", "setting": "[5]", "value": 0.516, "unit": "µM"}, {"measurement": "TGI", "setting": "[5]", "value": 4.8, "unit": "µM"}, {"measurement": "GI50", "setting": "[6]", "value": 1.64, "unit": "µM"}, {"measurement": "TGI", "setting": "[6]", "value": 3.07, "unit": "µM"}, {"measurement": "GI50", "setting": "[7]", "value": 1.84, "unit": "µM"}, {"measurement": "TGI", "setting": "[7]", "value": 3.72, "unit": "µM"}, {"measurement": "GI50", "setting": "[8]", "value": 1.71, "unit": "µM"}, {"measurement": "TGI", "setting": "[8]", "value": 3.16, "unit": "µM"}, {"measurement": "GI50", "setting": "[9]", "value": 1.14, "unit": "µM"}, {"measurement": "TGI", "setting": "[9]", "value": 2.35, "unit": "µM"}, {"measurement": "GI50", "setting": "[10]", "value": 0.291, "unit": "µM"}, {"measurement": "TGI", "setting": "[10]", "value": 1.07, "unit": "µM"}, {"measurement": "GI50", "setting": "[11]", "value": 3.29, "unit": "µM"}, {"measurement": "TGI", "setting": "[11]", "value": 12.1, "unit": "µM"}, {"measurement": "GI50", "setting": "[12]", "value": 2.29, "unit": "µM"}, {"measurement": "TGI", "setting": "[12]", "value": 5.93, "unit": "µM"}, {"measurement": "GI50", "setting": "[13]", "value": 1.82, "unit": "µM"}, {"measurement": "TGI", "setting": "[13]", "value": 3.45, "unit": "µM"}, {"measurement": "GI50", "setting": "[14]", "value": 1.26, "unit": "µM"}, {"measurement": "TGI", "setting": "[14]", "value": 2.56, "unit": "µM"}, {"measurement": "GI50", "setting": "[15]", "value": 1.99, "unit": "µM"}, {"measurement": "TGI", "setting": "[15]", "value": 3.79, "unit": "µM"}, {"measurement": "GI50", "setting": "[16]", "value": 2.01, "unit": "µM"}, {"measurement": "TGI", "setting": "[16]", "value": 4.93, "unit": "µM"}, {"measurement": "GI50", "setting": "[17]", "value": 3.41, "unit": "µM"}, {"measurement": "TGI", "setting": "[17]", "value": 12.6, "unit": "µM"}, {"measurement": "GI50", "setting": "[18]", "value": 1.79, "unit": "µM"}, {"measurement": "TGI", "setting": "[18]", "value": 3.36, "unit": "µM"}, {"measurement": "GI50", "setting": "[19]", "value": 0.369, "unit": "µM"}, {"measurement": "TGI", "setting": "[19]", "value": 1.47, "unit": "µM"}, {"measurement": "GI50", "setting": "[20]", "value": 0.308, "unit": "µM"}, {"measurement": "TGI", "setting": "[20]", "value": 1.05, "unit": "µM"}, {"measurement": "GI50", "setting": "[21]", "value": 1.9, "unit": "µM"}, {"measurement": "TGI", "setting": "[21]", "value": 4.58, "unit": "µM"}, {"measurement": "GI50", "setting": "[22]", "value": 1.55, "unit": "µM"}, {"measurement": "TGI", "setting": "[22]", "value": 2.88, "unit": "µM"}, {"measurement": "GI50", "setting": "[23]", "value": 1.44, "unit": "µM"}, {"measurement": "TGI", "setting": "[23]", "value": 2.87, "unit": "µM"}, {"measurement": "GI50", "setting": "[24]", "value": 1.58, "unit": "µM"}, {"measurement": "TGI", "setting": "[24]", "value": 3.1, "unit": "µM"}, {"measurement": "GI50", "setting": "[25]", "value": 1.74, "unit": "µM"}, {"measurement": "TGI", "setting": "[25]", "value": 3.49, "unit": "µM"}, {"measurement": "GI50", "setting": "[26]", "value": 0.893, "unit": "µM"}, {"measurement": "TGI", "setting": "[26]", "value": 2.64, "unit": "µM"}, {"measurement": "GI50", "setting": "[27]", "value": 1.15, "unit": "µM"}, {"measurement": "TGI", "setting": "[27]", "value": 2.39, "unit": "µM"}, {"measurement": "GI50", "setting": "[28]", "value": 1.71, "unit": "µM"}, {"measurement": "TGI", "setting": "[28]", "value": 3.11, "unit": "µM"}, {"measurement": "GI50", "setting": "[29]", "value": 1.79, "unit": "µM"}, {"measurement": "TGI", "setting": "[29]", "value": 3.39, "unit": "µM"}, {"measurement": "GI50", "setting": "[30]", "value": 1.96, "unit": "µM"}, {"measurement": "TGI", "setting": "[30]", "value": 4.25, "unit": "µM"}, {"measurement": "GI50", "setting": "[31]", "value": 1.13, "unit": "µM"}, {"measurement": "TGI", "setting": "[31]", "value": 2.38, "unit": "µM"}, {"measurement": "GI50", "setting": "[32]", "value": 0.458, "unit": "µM"}, {"measurement": "TGI", "setting": "[32]", "value": 3.25, "unit": "µM"}, {"measurement": "GI50", "setting": "[33]", "value": 1.75, "unit": "µM"}, {"measurement": "TGI", "setting": "[33]", "value": 3.16, "unit": "µM"}, {"measurement": "GI50", "setting": "[34]", "value": 2.08, "unit": "µM"}, {"measurement": "TGI", "setting": "[34]", "value": 4.85, "unit": "µM"}, {"measurement": "GI50", "setting": "[35]", "value": 0.33, "unit": "µM"}, {"measurement": "TGI", "setting": "[35]", "value": 1.16, "unit": "µM"}, {"measurement": "GI50", "setting": "[36]", "value": 0.4, "unit": "µM"}, {"measurement": "TGI", "setting": "[36]", "value": 2.38, "unit": "µM"}, {"measurement": "GI50", "setting": "[37]", "value": 1.88, "unit": "µM"}, {"measurement": "TGI", "setting": "[37]", "value": 3.8, "unit": "µM"}, {"measurement": "GI50", "setting": "[38]", "value": 1.77, "unit": "µM"}, {"measurement": "TGI", "setting": "[38]", "value": 3.69, "unit": "µM"}, {"measurement": "GI50", "setting": "[39]", "value": 0.228, "unit": "µM"}, {"measurement": "TGI", "setting": "[39]", "value": 0.582, "unit": "µM"}, {"measurement": "GI50", "setting": "[40]", "value": 1.58, "unit": "µM"}, {"measurement": "TGI", "setting": "[40]", "value": 3.48, "unit": "µM"}, {"measurement": "GI50", "setting": "[41]", "value": 0.661, "unit": "µM"}, {"measurement": "TGI", "setting": "[41]", "value": 3.61, "unit": "µM"}, {"measurement": "GI50", "setting": "[42]", "value": 0.162, "unit": "µM"}, {"measurement": "TGI", "setting": "[42]", "value": 0.319, "unit": "µM"}, {"measurement": "GI50", "setting": "[43]", "value": 1.74, "unit": "µM"}, {"measurement": "TGI", "setting": "[43]", "value": 3.15, "unit": "µM"}, {"measurement": "GI50", "setting": "[44]", "value": 1.98, "unit": "µM"}, {"measurement": "TGI", "setting": "[44]", "value": 4.98, "unit": "µM"}, {"measurement": "GI50", "setting": "[45]", "value": 1.39, "unit": "µM"}, {"measurement": "TGI", "setting": "[45]", "value": 2.85, "unit": "µM"}, {"measurement": "GI50", "setting": "[46]", "value": 1.93, "unit": "µM"}, {"measurement": "TGI", "setting": "[46]", "value": 3.73, "unit": "µM"}, {"measurement": "GI50", "setting": "[47]", "value": 1.61, "unit": "µM"}, {"measurement": "TGI", "setting": "[47]", "value": 2.99, "unit": "µM"}, {"measurement": "GI50", "setting": "[48]", "value": 1.2, "unit": "µM"}, {"measurement": "TGI", "setting": "[48]", "value": 2.49, "unit": "µM"}, {"measurement": "GI50", "setting": "[49]", "value": 1.75, "unit": "µM"}, {"measurement": "TGI", "setting": "[49]", "value": 3.27, "unit": "µM"}, {"measurement": "GI50", "setting": "[50]", "value": 4.21, "unit": "µM"}, {"measurement": "TGI", "setting": "[50]", "value": 14.5, "unit": "µM"}, {"measurement": "GI50", "setting": "[51]", "value": 0.625, "unit": "µM"}, {"measurement": "TGI", "setting": "[51]", "value": 7.73, "unit": "µM"}, {"measurement": "GI50", "setting": "[52]", "value": 1.63, "unit": "µM"}, {"measurement": "TGI", "setting": "[52]", "value": 3.71, "unit": "µM"}, {"measurement": "GI50", "setting": "[53]", "value": 1.74, "unit": "µM"}, {"measurement": "TGI", "setting": "[53]", "value": 4.52, "unit": "µM"}]}
